Structures can show the parent of a compound that is named as a salt. Where two headings read alike, the source gives them in different places.
What was measured:
[1] = system: Synaptosomes from guinea pig hippocampus; settings: peptide at 100 μM; 'known to' inhibit release; cited from earlier work
[2] = target: T1, M1 muscarinic receptor (M1 human CHO receptor membranes) (Homo sapiens, UniProt P11229); experiment: M1 Muscarinic Receptor % Inhibition Assay (SPA, tritiated scopolamine); assay type: binding
T1 construct: purchased Amersham 6110503; host or cells: CHO cell membranes
T1 sequence (P11229 1-460): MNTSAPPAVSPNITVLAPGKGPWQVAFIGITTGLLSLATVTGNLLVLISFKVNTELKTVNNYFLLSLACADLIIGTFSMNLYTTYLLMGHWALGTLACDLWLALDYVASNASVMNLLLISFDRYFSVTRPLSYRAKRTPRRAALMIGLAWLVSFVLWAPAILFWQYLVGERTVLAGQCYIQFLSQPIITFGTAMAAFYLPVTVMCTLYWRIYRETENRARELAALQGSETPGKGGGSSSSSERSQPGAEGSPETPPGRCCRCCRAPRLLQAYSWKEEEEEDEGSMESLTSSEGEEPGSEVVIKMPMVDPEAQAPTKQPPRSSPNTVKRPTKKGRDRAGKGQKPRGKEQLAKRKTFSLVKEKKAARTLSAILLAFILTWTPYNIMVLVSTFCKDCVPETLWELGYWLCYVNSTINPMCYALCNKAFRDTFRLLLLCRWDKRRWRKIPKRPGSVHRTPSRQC

fluo-Aβ1-40 = target: T2, fluo-Aβ1-40 (Homo sapiens, UniProt P05067); experiment: Aβ Aggregation Assay (Synthaloid plates, fluo-Aβ1-40); assay type: biochemical; settings: 10 μM test compound, 100 nM fluo-Aβ1-40, 2.5 hr at room temperature; higher % = greater effectiveness at preventing aggregation
T2 construct: added 100 nM of fluo-Aβ1-40 in 100 μl
T2 sequence (P05067 672-711): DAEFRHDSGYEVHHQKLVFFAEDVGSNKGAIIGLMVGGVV
Description: Aβs are known to form aggregates leading to the formation of amyloid plaques that are characteristic of Alzheimer's disease.
This aggregation assay was validated using both ^125I-Aβ1-40 and fluo-Aβ1-40 in a buffer containing 50 mM HEPES, pH 7.4, 0.1% BSA, 10% FCS and protease inhibitors.
To each well of a 96-well Synthaloid plate was added 100 nM of fluo-Aβ1-40 in 100 μl. To each well was then added 10 μM of test compound. The plate was then allowed to incubate for 2.5 hr at room temperature. At the end of the incubation, unbound protein in the wells was removed by three washes using the buffer as described above. The amount of bound protein (which represents the amount of Aβ aggregation) was measured either by fluorescence measurements.
Higher fluorescence values relative to vehicle wells were interpreted as an indication of greater Aβ aggregation. […] Higher % values in the data in Table 4 below, below indicates greater effectiveness at preventing aggregation.
(§1) Both the Aβ aggregation assay as described in Example 55, particularly as run using the ^125I-Aβ1-40, and the % inhibition of AcH release assay as described in Example 56, were highly variable on a run-to-run basis. However, the relative activities of the tested compounds were reproducible.

[3] = system: Synaptosomes from guinea pig hippocampus; experiment: % Inhibition of AcH Release Assay (K+-evoked 3H-acetylcholine release); assay type: cell-based; settings: synaptosomes pre-treated with 10 μM test compound prior to 65 mM K+ stimulation
Description: Synaptosomes from guinea pig hippocampus were incubated with 0.1 μM ^3H-choline and then subjected to repeated washes with buffer to remove unincorporated ^3H-choline. The synaptosomes were then treated with 65 mM K^+ for 30 seconds to elicit 3H-acetylcholine release.
To determine if a test compound will inhibit acetylcholine release, the synaptosomes were pre-treated with 10 μM of the test compound prior to the K+ stimulation. The decrease or increase in acetylcholine release was then measured by superfusion.
as §1

Compound	Inhibition of acetylcholine release [1]	% Inhibition @1 μM ([2]; 1 μM compound)	% Inhibition @10 μM ([2]; 10 μM compound)	Aβ aggregation inhibition (%) (fluo-Aβ1-40)	Inhibition of acetylcholine release [3]
Aβ1-40: β-amyloid peptide 1-40, known to inhibit acetylcholine release from synaptosomes	33%	–	–	–	–
Cc1ccc(N2C(=N)CC3(CN4CCC3CC4)OC2=O)cc1Cl (stereo not drawn) [Compound 109, 3′-(3-chloro-4-methylphenyl)-quinuclidine-3-spiro-4′-iminooxan-2-ones trifluoroacetate salt]	–	90%	98%	80%	33%
Aβ1-42: β-amyloid1-42 peptide, forms oligomers, fibrils and amyloid plaques	33%	–	–	–	–
O=C1OC2(CN3CCC2CC3)C(=O)N1c1cc(C(F)(F)F)cc(C(F)(F)F)c1 (stereo not drawn) [Compound 8, 3′-(3,5-bis(trifluoromethyl)phenyl)-quinuclidine-3-spiro-5′-oxazolidine-2′,4′-dione trifluoroacetate salt]	–	–	–	0%	77%
COc1ccc(N2C(=O)OC3(CN4CCC3CC4)C2=O)c(C)c1 (stereo not drawn) [Compound 4, 3′-(4-methoxy-2-methylphenyl)-quinuclidine-3-spiro-5′-oxazolidine-2′,4′-dione trifluoroacetate salt]	–	–	–	95%	36%
Cc1ccc(C)c(N2C(=O)OC3(CN4CCC3CC4)C2=O)c1 (stereo not drawn) [Compound 11, 3′-(2,5-dimethyphenyl)-quinuclidine-3-spiro-5′-oxazolidine-2′,4′-dione trifluoroacetate salt]	–	–	–	0%	71%
